This experiment addresses T1, P2X purinoceptor 7 (Homo sapiens, UniProt Q99572).
T1 sequence (Q99572 whole entry): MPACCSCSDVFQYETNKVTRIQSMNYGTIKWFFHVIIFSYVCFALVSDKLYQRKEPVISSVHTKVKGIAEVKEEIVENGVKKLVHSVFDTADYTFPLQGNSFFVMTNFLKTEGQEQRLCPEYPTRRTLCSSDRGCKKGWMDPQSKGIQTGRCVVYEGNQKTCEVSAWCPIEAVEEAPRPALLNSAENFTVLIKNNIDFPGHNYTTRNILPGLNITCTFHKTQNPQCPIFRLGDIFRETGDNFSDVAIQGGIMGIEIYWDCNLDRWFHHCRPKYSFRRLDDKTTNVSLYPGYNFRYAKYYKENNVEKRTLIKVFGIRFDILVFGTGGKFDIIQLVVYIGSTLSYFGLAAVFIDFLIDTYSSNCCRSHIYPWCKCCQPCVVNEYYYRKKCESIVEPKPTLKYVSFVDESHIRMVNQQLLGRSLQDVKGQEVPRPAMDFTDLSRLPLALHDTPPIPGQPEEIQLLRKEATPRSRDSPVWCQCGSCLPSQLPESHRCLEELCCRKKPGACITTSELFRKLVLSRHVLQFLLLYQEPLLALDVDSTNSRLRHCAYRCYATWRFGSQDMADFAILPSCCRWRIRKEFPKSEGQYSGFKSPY
As to the kind of experiment: Binding affinity to human P2X7 receptor expressed in HEK293 cells assessed as inhibition of BzATP-induced increase in ethidium bromide uptake by fluorescence plate reader analysis.

Consider `O=C(NCc1cccc(C(F)(F)F)c1Cl)[C@@H]1CCC(=O)N1C/C=C/I`, for which the IC50 – broadly, the concentration that inhibits the measured activity by half – was determined as 9.8 nM.
